Laboratory results from US11053204B2, “Pyrimidinyloxy benzene derivatives as herbicides” (FMC Corporation, priority 2015, dated 2021).

How the values were obtained:
Format in all cases: in vivo
[1] = test system: waterhemp (common waterhemp, Amaranthus rudis); experiment: Test C postemergence, plant response rating; conditions: for Plant response rating, Waterhemp: scale 0 to 100; for Waterhemp plant response rating: scale 0 to 100 (0 no effect, 100 complete control)
In short: (§1)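 Both timings shared one formulation, a non-phytotoxic solvent mixture with surfactant, and a greenhouse period of 13 to 15 d. Preemergence used seeded loam/sand or silt loam soil, postemergence used 2 to 18 cm plants; visual ratings ran from 0 (no effect) to 100 (complete control).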

[2] = test system: oilseed rape (Brassica napus); experiment: Test C postemergence, plant response rating; conditions: Brassica napus, post-emergence
In short: as §1

[3] = test system: morningglory (Ipomoea coccinea); experiment: Test C postemergence, plant response rating; conditions: Ipomoea, post-emergence
In short: as §1

[4] = test system: barnyardgrass (Echinochloa crus-galli); experiment: Test C postemergence, plant response rating; conditions: Echinochloa crus-galli, post-emergence
In short: as §1

[5] = test system: velvetleaf (Abutilon theophrasti); experiment: Test C postemergence, plant response rating; conditions: Abutilon theophrasti, post-emergence
In short: as §1

[6] = test system: ragweed (common ragweed, Ambrosia elatior); experiment: Test C postemergence, plant response rating; conditions: Ambrosia artemisiifolia, post-emergence
In short: as §1

kochia (Kochia scoparia) [7] = experiment: Test C postemergence, plant response rating; conditions: Bassia scoparia, post-emergence
In short: as §1

[8] = test system: ducksalad (Heteranthera limosa); experiment: Test B flooded paddy test, plant response rating; conditions: Heteranthera limosa, 312 h; 250 g ai/ha; Flood; scale of 0 to 100 where 0 is no effect and 100 is complete control; 13 to 15 days
In short: (§2)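 Under a constant 3 cm flood, test compounds went directly into the paddy water. Following 13 to 15 days of greenhouse growth, treated species and controls were compared by eye.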

[9] = test system: sedge, umbrella (small-flower umbrella sedge, Cyperus difformis); experiment: Test B flooded paddy test, plant response rating; conditions: Cyperus difformis, 312 h; 250 g ai/ha; Flood; scale of 0 to 100 where 0 is no effect and 100 is complete control; 13 to 15 days
In short: as §2

rice (Oryza sativa) = experiment: Test B flooded paddy test, plant response rating; conditions: Oryza sativa, 312 h; 250 g ai/ha; Flood; scale of 0 to 100 where 0 is no effect and 100 is complete control; 13 to 15 days
In short: as §2

[10] = test system: barnyardgrass (Echinochloa crus-galli); experiment: Test B flooded paddy test, plant response rating; conditions: Echinochloa crus-galli, 312 h; 250 g ai/ha; Flood; scale of 0 to 100 where 0 is no effect and 100 is complete control; 13 to 15 days
In short: as §2

[11] = test system: Italian ryegrass (Lolium multiflorum); experiment: Test A postemergence, visual injury rating; conditions: Lolium multiflorum, post-emergence, 240 h, 0 is no effect, 100 is complete control, read-out: Ryegrass, Italian plant response rating (0 to 100 scale)
In short: (§3)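 Visual injury scored 0–100 (100 = complete control) against untreated controls about 10 days after treatment in a greenhouse. Test chemicals, formulated with surfactant in non-phytotoxic solvent, were sprayed on soil preemergence or on 2-10 cm, one- to two-leaf plants postemergence.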

corn (Zea mays) = experiment: Test A postemergence, visual injury rating; conditions: Zea mays, post-emergence, 240 h, 0 is no effect, 100 is complete control, read-out: Corn plant response rating (0 to 100 scale)
In short: as §3

[12] = test system: wheat (Triticum aestivum); experiment: Test A postemergence, visual injury rating; conditions: Triticum aestivum, post-emergence, 240 h, 0 is no effect, 100 is complete control, read-out: Wheat plant response rating (0 to 100 scale)
In short: as §3

[13] = test system: pigweed (Amaranthus retroflexus); experiment: Test A postemergence, visual injury rating; conditions: Amaranthus retroflexus, post-emergence, 240 h, 0 is no effect, 100 is complete control, read-out: Pigweed plant response rating (0 to 100 scale)
In short: as §3

[14] = test system: ragweed (common ragweed, Ambrosia elatior); experiment: Test A postemergence, visual injury rating; conditions: Ambrosia artemisiifolia, post-emergence, 240 h, 0 is no effect, 100 is complete control, read-out: Ragweed plant response rating (0 to 100 scale)
In short: as §3

[15] = test system: giant foxtail (Setaria faberii); experiment: Test A postemergence, visual injury rating; conditions: Setaria faberi, post-emergence, 240 h, 0 is no effect, 100 is complete control, read-out: Foxtail, Giant plant response rating (0 to 100 scale)
In short: as §3

kochia (Kochia scoparia) [16] = experiment: Test A postemergence, visual injury rating; conditions: Bassia scoparia, post-emergence, 240 h, 0 is no effect, 100 is complete control, read-out: Kochia plant response rating (0 to 100 scale)
In short: as §3

[17] = 62 g ai/ha, scale 0 to 100 (0 no effect, 100 complete control)
[18] = 125 g ai/ha, scale 0 to 100 (0 no effect, 100 complete control)

With `O=C(OCC(F)(F)C(F)(F)F)c1c(Br)cccc1Oc1ncc(Cl)cn1` [Compound 23, 2,2,3,3,3-pentafluoropropyl 2-bromo-6-[(5-chloro-2-pyrimidinyl)oxy]benzoate] the “Plant response rating, Waterhemp” value ([1]; 16 g ai/ha) was 80, the “Plant response rating, Waterhemp” value ([1]; 31 g ai/ha) was 90 and the “Waterhemp plant response rating” value ([1]; 62 g ai/ha) was 85. For the same compound, the “Waterhemp plant response rating” value ([1]; 125 g ai/ha) was 95, the plant injury at 16 g/ha ([2]; 16 g ai/ha, scale 0 to 100) was 5% and the plant injury at 31 g/ha ([2]; 31 g ai/ha, scale 0 to 100) was 5%. For the same compound, the plant injury at 62 g/ha [2, 17] was 50%, the plant injury at 125 g/ha [2, 18] was 35% and the pest or weed control at 16 g/ha ([3]; 16 g ai/ha, scale 0 to 100) was 10%. It also gave a pest or weed control at 31 g/ha ([3]; 31 g ai/ha, scale 0 to 100) of 55%, a pest or weed control at 62 g/ha [3, 17] of 60% and a pest or weed control at 125 g/ha [3, 18] of 35%. The pest or weed control at 16 g/ha ([4]; 16 g ai/ha, scale 0 to 100) was 10%, the pest or weed control at 31 g/ha ([4]; 31 g ai/ha, scale 0 to 100) was 10% and the pest or weed control at 62 g/ha [4, 17] was 10%. The pest or weed control at 125 g/ha [4, 18] was 20%, the pest or weed control at 16 g/ha ([5]; 16 g ai/ha, scale 0 to 100) was 10% and the pest or weed control at 31 g/ha ([5]; 31 g ai/ha, scale 0 to 100) was 35%. For the same compound, the pest or weed control at 62 g/ha ([5]; 62 g ai/ha, scale 0 to 100 (0 no effect, 100 complete control), read-out: Velvetleaf plant response rating) was 35%, the pest or weed control at 125 g/ha [5, 18] was 40% and the pest or weed control at 16 g/ha ([6]; 16 g ai/ha, scale 0 to 100) was 15%. For the same compound, the pest or weed control at 31 g/ha ([6]; 31 g ai/ha, scale 0 to 100) was 35%, the pest or weed control at 62 g/ha [6, 17] was 40% and the pest or weed control at 125 g/ha [6, 18] was 50%. It also gave a pest or weed control at 16 g/ha (kochia (Kochia scoparia) [7]; 16 g ai/ha, scale 0 to 100) of 5%, a pest or weed control at 31 g/ha (kochia (Kochia scoparia) [7]; 31 g ai/ha, scale 0 to 100) of 50% and a pest or weed control at 62 g/ha (kochia (Kochia scoparia) [7]; [17]) of 55%. The pest or weed control at 125 g/ha (kochia (Kochia scoparia) [7]; [18]) was 85%, the pest or weed control at 250 g/ha [8] was 30% and the pest or weed control at 250 g/ha [9] was 95%. It also gave a plant injury at 250 g/ha (rice (Oryza sativa)) of 15%, a pest or weed control at 250 g/ha [10] of 0% and a pest or weed control at 125 g/ha ([11]; 125 g ai/ha) of 10%. The pest or weed control at 500 g/ha ([11]; 500 g ai/ha) was 70%, the plant injury at 125 g/ha (corn (Zea mays); 125 g ai/ha) was 10% and the plant injury at 500 g/ha (corn (Zea mays); 500 g ai/ha) was 20%. It also gave a plant injury at 125 g/ha ([12]; 125 g ai/ha) of 0%, a plant injury at 500 g/ha ([12]; 500 g ai/ha) of 10% and a pest or weed control at 125 g/ha ([13]; 125 g ai/ha) of 100%. It also gave a pest or weed control at 500 g/ha ([13]; 500 g ai/ha) of 100%, a pest or weed control at 125 g/ha ([14]; 125 g ai/ha) of 0% and a pest or weed control at 500 g/ha ([14]; 500 g ai/ha) of 10%. It also gave a pest or weed control at 125 g/ha ([15]; 125 g ai/ha) of 30%, a pest or weed control at 500 g/ha ([15]; 500 g ai/ha) of 80% and a pest or weed control at 125 g/ha (kochia (Kochia scoparia) [16]; 125 g ai/ha) of 80%. For the same compound, the pest or weed control at 500 g/ha (kochia (Kochia scoparia) [16]; 500 g ai/ha) was 100%.
